Reference: ChEMBL document CHEMBL5104158, “Synthesis and human monoamine oxidase inhibitory activity of novel C2-, C3- and C4-substituted phthalonitriles” (Bioorg Med Chem Lett, 2022)

Columns and labels:
[1] = target: T1, Amine oxidase [flavin-containing] B (Homo sapiens, UniProt P27338); assay: Inhibition of human MAO-B assessed as inhibition of H2O2 production using p-tyramine as substrate
T1 sequence (P27338 whole entry): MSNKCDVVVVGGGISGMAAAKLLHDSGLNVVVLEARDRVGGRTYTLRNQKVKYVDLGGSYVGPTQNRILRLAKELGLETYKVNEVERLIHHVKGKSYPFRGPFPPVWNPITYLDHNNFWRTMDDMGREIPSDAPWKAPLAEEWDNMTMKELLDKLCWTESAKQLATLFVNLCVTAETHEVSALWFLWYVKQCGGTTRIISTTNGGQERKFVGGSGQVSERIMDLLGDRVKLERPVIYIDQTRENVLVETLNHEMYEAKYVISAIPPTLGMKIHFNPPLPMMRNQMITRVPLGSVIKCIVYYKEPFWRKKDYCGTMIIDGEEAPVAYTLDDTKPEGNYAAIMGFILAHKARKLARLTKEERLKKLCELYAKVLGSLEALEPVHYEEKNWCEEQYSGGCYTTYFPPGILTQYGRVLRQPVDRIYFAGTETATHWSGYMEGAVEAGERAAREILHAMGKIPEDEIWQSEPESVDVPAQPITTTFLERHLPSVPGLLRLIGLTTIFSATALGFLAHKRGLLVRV

Homo sapiens = organism: Homo sapiens; assay: Selectivity index, ratio of IC50 for inhibition of human MAO-A to IC50 for inhibition of human MAO-B
[2] = target: T2, Amine oxidase [flavin-containing] A (Homo sapiens, UniProt P21397); assay: Inhibition of human MAO-A assessed as inhibition of H2O2 production using p-tyramine as substrate at 100 uM
T2 sequence (P21397 whole entry): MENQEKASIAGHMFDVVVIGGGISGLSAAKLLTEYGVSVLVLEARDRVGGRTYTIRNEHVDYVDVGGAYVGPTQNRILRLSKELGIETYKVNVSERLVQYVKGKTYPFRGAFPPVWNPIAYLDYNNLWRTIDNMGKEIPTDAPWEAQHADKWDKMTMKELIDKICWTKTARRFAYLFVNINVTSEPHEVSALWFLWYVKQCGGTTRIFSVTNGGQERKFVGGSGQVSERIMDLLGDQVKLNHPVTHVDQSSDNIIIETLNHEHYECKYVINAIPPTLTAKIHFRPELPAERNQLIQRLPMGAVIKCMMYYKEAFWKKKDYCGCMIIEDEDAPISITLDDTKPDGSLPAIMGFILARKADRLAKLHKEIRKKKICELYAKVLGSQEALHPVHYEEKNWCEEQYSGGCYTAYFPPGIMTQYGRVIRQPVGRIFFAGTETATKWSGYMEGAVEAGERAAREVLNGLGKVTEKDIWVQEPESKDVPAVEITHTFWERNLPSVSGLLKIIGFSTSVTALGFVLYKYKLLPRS

[3] = target: T2, Amine oxidase [flavin-containing] A; assay: Inhibition of human MAO-A assessed as inhibition of H2O2 production using p-tyramine as substrate
[4] = target: T1, Amine oxidase [flavin-containing] B; assay: Inhibition of human MAO-B assessed as enzyme residual activity using p-tyramine as substrate
[5] = target: T1, Amine oxidase [flavin-containing] B; assay: Mixed competitive inhibition of human MAO-B using p-tyramine as substrate by Lineweaver-Burk plot analysis
[6] = target: T1, Amine oxidase [flavin-containing] B; assay: Reversible inhibition of human MAO-B assessed as enzyme residual activity using p-tyramine as substrate measured after dialysis by dialysis method

Row | SMILES | IC50 [1] | Ratio IC50 (Homo sapiens) | inhibition at 100 µM [2] | IC50 [3] | Activity [4] | Ki [5] | Activity [6]
1 | CC(=O)Oc1ccc(-c2ccccc2)cc1/N=N/c1ccc(C#N)c(C#N)c1 | 3820 nM | > 26.2 | 27% |  |  |  | 
2 | COc1ccc(/N=N/c2ccc(C#N)c(C#N)c2)cc1-c1ccccc1 | 1440 nM | 0.62 |  | 890 nM |  |  | 
3 | COc1cc(S)c(/N=N/c2cccc(C#N)c2C#N)cc1OC | 80300 nM | 0.22 |  | 17800 nM |  |  | 

Stronger by IC50 [1], values ahead:

Row | IC50 [1] | Ratio IC50 (Homo sapiens) | inhibition at 100 µM [2] | IC50 [3] | Activity [4] | Ki [5] | Activity [6] | SMILES
4 | 1120 nM | 0.69 |  | 780 nM |  |  |  | N#Cc1ccc(/N=N/c2ccc(O)c(-c3ccccc3)c2)cc1C#N
5 | 740 nM | 75.2 |  | 55600 nM | 34.8% | 77.5 nM | 83.3% | COc1cc(S)c(/N=N/c2ccc(C#N)c(C#N)c2)cc1OC
6 | 700 nM | 42 |  | 29400 nM |  |  |  | N#Cc1ccc(/N=N/c2cc(-c3ccccc3)ccc2O)cc1C#N
